In US11897865B2, “ABHD12 inhibitors and methods of making and using same” (THE SCRIPPS RESEARCH INSTITUTE, priority 2018, dated 2024):
pIC50: −log10 of the molar value.

Key:
[1] = biological target: T1, ABHD12 (Mus musculus, UniProt Q99LR1); test: Gel-based competitive ABPP, JJH350 probe vs brain membrane proteome; format: biochemical; conditions: for pIC50: read-out: IC50 (ABPP gel_JJH350 probe vs brain mem); for inhibition at 10 µM: 10 μM compound, read-out: % Inhibition @ 10 μM (ABPP gel_JJH350 probe vs brain mem)
T1 construct: from tissue; host or cells: brain membrane proteome
T1 sequence (Q99LR1 1-398): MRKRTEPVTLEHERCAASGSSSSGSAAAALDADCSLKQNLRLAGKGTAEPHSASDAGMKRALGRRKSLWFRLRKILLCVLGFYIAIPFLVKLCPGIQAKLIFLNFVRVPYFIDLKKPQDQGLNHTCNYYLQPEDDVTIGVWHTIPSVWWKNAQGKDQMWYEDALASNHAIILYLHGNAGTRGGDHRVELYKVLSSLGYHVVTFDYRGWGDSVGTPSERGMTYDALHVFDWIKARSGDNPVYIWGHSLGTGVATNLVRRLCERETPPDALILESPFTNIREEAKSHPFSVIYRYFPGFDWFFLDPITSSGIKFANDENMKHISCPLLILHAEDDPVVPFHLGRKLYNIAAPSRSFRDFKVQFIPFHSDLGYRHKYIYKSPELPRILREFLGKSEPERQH
Protocol: Gel-Based Competitive ABPP for In Vitro Inhibitor Treatment of Proteomes:
Gel-based ABPP assays were performed as previously reported (Bachovchin, D. A. et al. Superfamily-wide portrait of serine hydrolase inhibition achieved by library-versus-library screening. Proc. Natl. Acad. Sci. U. S. A. 2010, 107, 20941-20946). Cell or tissue proteomes (50 μL, 1 mg/mL) were treated with either FP-Rh (1 μM final concentration) or JJH350 (2 μM final concentration) for 45 min at 37° C. For FP-Rh labeled samples, the reactions were quenched by adding 20 μL of 4× SDS-PAGE loading buffer. The 30 μL of the quenched samples were loaded on gel for analysis. For (S)-1,3-dioxo-7-(4-phenoxybenzoyl)hexahydroimidazo[1,5-a]pyrazin-2(3H)-yl 4-(4-(prop-2-yn-1-yloxy)phenyl)piperazine-1-carboxylate (JJH350)-labeled samples, copper-catalyzed azide-alkyne cycloaddition (CuAAC) was used for visualizing the labeled proteins following the reported protocol. Briefly, rhodamine-PEG3-N3 (1 μL/reaction, 1.25 mM in DMSO), CuSO4 (1 μL/reaction, 50 mM in H2O), TBTA (3 μL/reaction, 1.7 mM in DMSO/t-BuOH [1:4, v/v]) and tris(2-carboxyethyi)phosphine (TCEP) (1 μL/reaction, 50 mM in H2O, freshly prepared) were premixed. 6 μL of this click reagent mixture was immediately added to each JJH350-labeled samples (50 μL, 1 mg/mL) and incubated for 1 h at room temperature. The reactions were quenched by adding 20 μL of 4× SDS-PAGE loading buffer. The 40 μL of the quenched samples were loaded on a gel for analysis.
After separation by SDS-PAGE (10% acrylamide), samples were visualized by in-gel fluorescence scanning using the ChemiDoc MP system (Bio-Rad). Band intensities were quantified using the Image Lab (5.2.1) software (Bio-Rad).

[2] = biological target: T2, ABHD12 (Homo sapiens, UniProt Q8N2K0); test: Lyso-PS hydrolysis assay (substrate-based), ABHD12-overexpressing HEK293T membrane lysate; format: biochemical; conditions: 17:1 lyso-PS substrate; ABHD12-overexpressed HEK lysate; read-out: IC50 (Substrate-based assay_ABHD12-overexpressed HEK lysate)
T2 construct: expressed in transfected cells; host or cells: HEK293T
T2 sequence (Q8N2K0 1-398): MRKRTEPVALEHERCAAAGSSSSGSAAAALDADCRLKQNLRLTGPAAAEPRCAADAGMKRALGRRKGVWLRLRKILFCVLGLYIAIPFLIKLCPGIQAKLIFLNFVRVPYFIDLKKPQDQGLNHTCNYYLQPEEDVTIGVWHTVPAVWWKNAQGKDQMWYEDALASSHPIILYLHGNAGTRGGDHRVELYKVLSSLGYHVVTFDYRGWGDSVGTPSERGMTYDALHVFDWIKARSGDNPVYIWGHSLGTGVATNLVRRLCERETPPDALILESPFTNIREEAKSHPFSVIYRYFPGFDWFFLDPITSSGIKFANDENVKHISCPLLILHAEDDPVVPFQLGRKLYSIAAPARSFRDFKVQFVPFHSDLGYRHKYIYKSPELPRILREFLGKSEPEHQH
Protocol: Lyso-PS Hydrolysis Assay:
The lyso-PS lipase activity of ABHD12 was determined as previously described (Blankman, J. L., Long, J. Z., Trauger, S. A., Siuzdak, G. & Cravatt, B. F. ABHD12 controls brain lysophosphatidylserine pathways that are deregulated in a murine model of the neurodegenerative disease PHARC. Proc. Natl. Acad. Sci. U. S. A. 110, 1500-1505, doi:10.1073/pnas.1217121110 (2013)) with some minor modifications. The proteome concentrations were adjusted to 0.25 mg/mL (ABHD12-overexpressing HEK293T membrane) or 0.5 mg/mL (mouse brain membrane) in Dulbecco's phosphate-buffered saline (DPBS) (80 μL/reaction). 20 μL of 500 μM 17:1 lyso-PS in DPBS was added to each reaction (100 μM final concentration) and incubated at 37° C. After 30 min, the reaction was quenched with 400 μL of 2:1 CHCl3/MeOH (v/v) with 1 nmol 15:0 FFA as an internal standard. The mixture was vortexed and centrifuged at 1,400× g to separate the aqueous and organic phase. The organic phase was analyzed by LC-MS (1200 LC/MSD, Agilent Technologies). The separation of the analyte was achieved using a 50 mm×4.6 mm 5 μm Gemini C18 column (Phenomenex) coupled to a guard column (Gemini: C18: 4×3 mm). The LC solvents were as follows: buffer A, […] (95:5, v/v) with 0.1% NH4OH (v/v); and buffer B, iPrOH:MeOH:H2O (60:3 5:5, v/v/v) with 0.1% NH4OH (v/v). The LC method consisted of 0.1 mL/min 20% buffer B for 1.0 min, 0.4 ml/min isocratic mode of 100% buffer B over 7 min and equilibration with 0.5 mL/min 100% buffer A for 3 min. The MS analyses were performed using an electrospray ionization source (ESI) in negative ion mode to measure product formation. MS data were acquired in selected ion monitoring mode at m/z 267.20 for 17:1 FFA and m/z 241.20 for 15:0 FFA.

SMILES | pIC50 [1] | pIC50 [2] | inhibition at 10 µM [1] [%]
FC(F)(F)Oc1ccccc1Oc1ccnc(N2CCC(NC(=S)Nc3cccnc3)CC2)c1Cl [Example 67, 1-(1-(3-Chloro-4-(2-(trifluoromethoxy)phenoxy)pyridin-2-yl)piperidin-4-yl)-3-(pyridin-3-yl)thiourea] | ≥ 7.00 | 6.00 to 7.00 | 
FC(F)(F)c1cccnc1N1CCC(NC(=S)Nc2cccnc2)CC1 [Example 16, 1-(Pyridin-3-yl)-3-(1-(3-(trifluoromethyl)pyridin-2-yl)piperidin-4-yl)thiourea] | 4.60 to 6.00 | 4.60 to 6.00 | 25 to 50
FC(F)(F)Oc1ccc(Oc2ccnc(N3CCC(NC(=S)Nc4cccnc4)CC3)c2C(F)(F)F)cc1 [Example 59, 1-(Pyridin-3-yl)-3-(1-(4-(4-(trifluoromethoxy)phenoxy)-3-(trifluoromethyl)pyridin-2-yl)piperidin-4-yl)thiourea] | 4.60 to 6.00 | 4.60 to 6.00 | ≥ 75
S=C(Nc1cccnc1)NC1CCN(c2cc(Cl)ccn2)CC1 [Example 28, 1-(1-(4-Chloropyridin-2-yl)piperidin-4-yl)-3-(pyridin-3-yl)thiourea] | 4.60 to 6.00 | 4.60 to 6.00 | ≥ 75
FC(F)(F)Oc1ccc(Oc2ccnc(N3CCC(NC(=S)Nc4cccnc4)CC3)c2Cl)cc1 [Example 3, 1-(1-(3-chloro-4-(4-(trifluoromethoxy)phenoxy)pyridin-2-yl)piperidin-4-yl)-3-(pyridin-3-yl)thiourea] | ≥ 7.00 | ≥ 7.00 | ≥ 75
S=C(Nc1cccnc1)NC1CCN(c2cc(Oc3ccccc3)ccn2)CC1 [Example 40, 1-(1-(4-Phenoxypyridin-2-yl)piperidin-4-yl)-3-(pyridin-3-yl)thiourea] | 4.60 to 6.00 | 4.60 to 6.00 | ≥ 75
N#Cc1c(Oc2ccc(OC(F)(F)F)cc2)ccnc1N1CCC(NC(=S)Nc2cccnc2)CC1 [Example 71, 1-(1-(3-Cyano-4-(4-(trifluoromethoxy)phenoxy)pyridin-2-yl)piperidin-4-yl)-3-(pyridin-3-yl)thiourea] | 6.00 to 7.00 | 6.00 to 7.00 | 
FC(F)(F)Oc1cccc(Oc2ccnc(N3CCC(NC(=S)Nc4cccnc4)CC3)c2Cl)c1 [Example 66, 1-(1-(3-Chloro-4-(3-(trifluoromethoxy)phenoxy)pyridin-2-yl)piperidin-4-yl)-3-(pyridin-3-yl)thiourea] | ≥ 7.00 | 6.00 to 7.00 | 
FC(F)(F)c1ccnc(N2CCC(NC(=S)Nc3cccnc3)CC2)c1Cl [Example 26, 1-(1-(3-Chloro-4-(trifluoromethyl)pyridin-2-yl)piperidin-4-yl)-3-(pyridin-3-yl)thiourea] | 6.00 to 7.00 | 6.00 to 7.00 | ≥ 75
FC(F)(F)c1cccc(N2CCC(NC(=S)Nc3cccnc3)CC2)n1 [Example 29, 1-(Pyridin-3-yl)-3-(1-(6-(trifluoromethyl)pyridin-2-yl)piperidin-4-yl)thiourea] | 6.00 to 7.00 | 6.00 to 7.00 | ≥ 75
FC(F)(F)Oc1ccc(Oc2ccnc(N3CCC(NC(=S)Nc4cccnc4)CC3)c2Cl)c(Cl)c1 [Example 4, 1-(1-(3-Chloro-4-(2-chloro-4-(trifluoromethoxy)phenoxy)pyridin-2-yl)piperidin-4-yl)-3-(pyridin-3-yl)thiourea] | ≥ 7.00 | ≥ 7.00 | 
FC(F)(F)Oc1cc(Oc2ccnc(N3CCC(NC(=S)Nc4cccnc4)CC3)c2)ccc1Cl [Example 57, 1-(1-(4-(4-Chloro-3-(trifluoromethoxy)phenoxy)pyridin-2-yl)piperidin-4-yl)-3-(pyridin-3-yl)thiourea] | 6.00 to 7.00 | 6.00 to 7.00 | ≥ 75
Cc1c(Oc2ccc(OC(F)(F)F)cc2)ccnc1N1CCC(NC(=S)Nc2cccnc2)CC1 [Example 72, 1-(1-(3-Methyl-4-(4-(trifluoromethoxy)phenoxy)pyridin-2-yl)piperidin-4-yl)-3-(pyridin-3-yl)thiourea] | ≥ 7.00 | ≥ 7.00 | 
COc1ccc(Oc2ccnc(N3CCC(NC(=S)Nc4cccnc4)CC3)c2)cc1 [Example 74, 1-(1-(4-(4-Methoxyphenoxy)pyridin-2-yl)piperidin-4-yl)-3-(pyridin-3-yl)thiourea] | 4.60 to 6.00 | 4.60 to 6.00 | 
FC(F)(F)c1ccnc(N2CCC(NC(=S)Nc3cccnc3)CC2)c1 [Example 15, 1-(Pyridin-3-yl)-3-(1-(4-(trifluoromethyl)pyridin-2-yl)piperidin-4-yl)thiourea] | 6.00 to 7.00 | 4.60 to 6.00 | ≥ 75
FC(F)(F)c1cc(Cl)nc(N2CCC(NC(=S)Nc3cccnc3)CC2)c1 [Example 27, 1-(1-(6-Chloro-4-(trifluoromethyl)pyridin-2-yl)piperidin-4-yl)-3-(pyridin-3-yl)thiourea] | 6.00 to 7.00 | 6.00 to 7.00 | ≥ 75
FC(F)(F)c1ccc(N2CCC(NC(=S)Nc3cccnc3)CC2)nc1 [Example 14, 1-(Pyridin-3-yl)-3-(1-(5-(trifluoromethyl)pyridin-2-yl)piperidin-4-yl)thiourea] | 4.60 to 6.00 | 4.60 to 6.00 | ≥ 75
FC(F)(F)Oc1ccc(Oc2ccnc(N3CCC(NC(=S)Nc4cccnc4)CC3)c2)cc1Cl [Example 54, 1-(1-(4-(3-Chloro-4-(trifluoromethoxy)phenoxy)pyridin-2-yl)piperidin-4-yl)-3-(pyridin-3-yl)thiourea] |  | 6.00 to 7.00 | ≥ 75
C#Cc1ccc(Oc2ccnc(N3CCC(NC(=S)Nc4cccnc4)CC3)c2Cl)c(Cl)c1 [Example 5, 1-(1-(3-Chloro-4-(2-chloro-4-ethynylphenoxy)pyridin-2-yl)piperidin-4-yl)-3-(pyridin-3-yl)thiourea] |  | ≥ 7.00 | 
